This series in a line: physchem. The series is classed as physicochemical. The conditions noted are these: organic solvent or mixture.

In brackets after ≈: the same amount, converted by molar mass.

One molecule from patent US10858348B2, “Salt forms of 4-cyano-N-(4,4-dimethylcyclohex-1-en-1-yl)-6-(2,2,6,6-Tetr amethyltetrahydro-2H-pyran-4-yl)pyridin-3-yl)-1H-imidazole-2-carboximide” (Janssen Pharmaceutica NV, priority 2016, dated 2020) can be followed below.

As a reminder, the solubility is the dissolved amount per volume that the medium holds.

For `CC1(C)CC=C(c2nc(C3CC(C)(C)OC(C)(C)C3)ccc2NC(=O)c2nc(C#N)c[nH]2)CC1` [Compound A, 4-cyano-N-[2-(4,4-dimethylcyclohex-1-en-1-yl)-6-(2,2,6,6-tetramethyltetrahydro-2H-pyran-4-yl)pyridin-3-yl]-1H-imidazole-2-carboxamide], the solubility is ~130 mg/mL (≈ 282 mM).
